Test results: patent US9695154B2, “Heteroaryl inhibitors of sumo activating enzyme” (MILLENNIUM PHARMACEUTICALS, INC., priority 2013, dated 2017)

Target: T1, recombinant human SAE enzyme (Homo sapiens, UniProt Q9UBT2)
T1 sequence (Q9UBT2 1-640): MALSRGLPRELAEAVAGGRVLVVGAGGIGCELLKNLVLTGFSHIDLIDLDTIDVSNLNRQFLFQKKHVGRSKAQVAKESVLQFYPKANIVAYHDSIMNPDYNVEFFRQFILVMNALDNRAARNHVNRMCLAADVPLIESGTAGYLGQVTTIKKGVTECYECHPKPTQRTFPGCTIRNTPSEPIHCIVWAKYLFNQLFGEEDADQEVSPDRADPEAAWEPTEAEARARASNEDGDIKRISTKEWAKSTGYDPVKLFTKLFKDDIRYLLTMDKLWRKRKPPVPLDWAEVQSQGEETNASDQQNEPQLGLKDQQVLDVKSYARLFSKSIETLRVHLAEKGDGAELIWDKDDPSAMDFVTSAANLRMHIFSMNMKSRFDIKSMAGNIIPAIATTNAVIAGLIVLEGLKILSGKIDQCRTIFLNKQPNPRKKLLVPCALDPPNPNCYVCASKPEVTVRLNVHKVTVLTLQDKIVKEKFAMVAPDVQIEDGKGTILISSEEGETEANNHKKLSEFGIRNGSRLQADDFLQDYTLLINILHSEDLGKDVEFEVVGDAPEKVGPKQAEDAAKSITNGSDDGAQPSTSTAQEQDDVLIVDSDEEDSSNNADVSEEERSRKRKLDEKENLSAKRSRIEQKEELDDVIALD
T1 sequence (Q9UBE0 1-346 partner): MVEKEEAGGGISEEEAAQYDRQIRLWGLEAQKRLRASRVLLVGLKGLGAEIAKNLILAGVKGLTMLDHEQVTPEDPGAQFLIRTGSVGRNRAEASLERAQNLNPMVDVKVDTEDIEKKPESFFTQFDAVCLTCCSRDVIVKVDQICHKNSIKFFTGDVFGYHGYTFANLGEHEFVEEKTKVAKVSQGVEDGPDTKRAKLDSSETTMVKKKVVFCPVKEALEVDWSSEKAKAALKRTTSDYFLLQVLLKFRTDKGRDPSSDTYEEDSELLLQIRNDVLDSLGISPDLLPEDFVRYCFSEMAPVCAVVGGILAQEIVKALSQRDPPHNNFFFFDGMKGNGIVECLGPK
Experiment: SAE HTRF Enzyme Assay
Format: biochemical
Settings: for IC50: class symbols A-C; for inhibition at 0.111 µM: compound concentration 0.111 μM, read-out: Percent Inhibition
Procedure, shortened: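 HTRF signal from Eu-anti-Flag/APC-anti-GST pairs reports Sumo-Flag loaded onto Ubc9-GST by 0.11 nM SAE. Reaction: 0.5 μM ATP, 0.125 μM Sumo-Flag, 0.01 μM Ubc9-GST, 5 mM MgCl2, pH 7.5, 105 min, 24° C. Single-concentration % inhibition or IC50 reported.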

## NS(=O)(=O)OC[C@H]1C[C@@H](Nc2ncncc2C(=O)c2ccn(Cc3cccc(Br)c3)n2)[C@H](O)[C@@H]1O [Compound I-240, {(1R,2R,3S,4R)-4-[(5-{[1-(3-bromobenzyl)-1H-pyrazol-3-yl]carbonyl}pyrimidin-4-yl)amino]-2,3-dihydroxycyclopentyl}methyl sulfamate]
  IC50: < 10 nM
  inhibition at 0.111 µM: 100%

## NS(=O)(=O)OC[C@H]1C[C@@H](Nc2ncncc2C(=O)c2ccn(Cc3cc4ccccc4s3)n2)C[C@@H]1O [Compound I-241, {(1R,2S,4R)-4-[(5-{[1-(1-benzothiophen-2-ylmethyl)-1H-pyrazol-3-yl]carbonyl}pyrimidin-4-yl)amino]-2-hydroxycyclopentyl}methyl sulfamate]
  IC50: < 10 nM
  inhibition at 0.111 µM: 98%

## NS(=O)(=O)OC[C@H]1C[C@@H](Nc2ccncc2C(=O)c2ccn(Cc3cccc(Cl)c3)n2)[C@@H](F)[C@@H]1O [Compound I-242, {(1R,2R,3R,4R)-4-[(3-{[1-(3-chlorobenzyl)-1H-pyrazol-3-yl]carbonyl}pyridin-4-yl)amino]-3-fluoro-2-hydroxycyclopentyl}methyl sulfamate]
  IC50: < 10 nM
  inhibition at 0.111 µM: 96%

## NS(=O)(=O)OC[C@H]1C[C@@H](Nc2ncncc2C(=O)c2ccn(CCc3cccc(Br)c3)c2)[C@@H](F)[C@@H]1O [Compound I-243, [(1R,2R,3R,4R)-4-{[5-({1-[2-(3-bromophenyl)ethyl]-1H-pyrrol-3-yl}carbonyl)pyrimidin-4-yl]amino}-3-fluoro-2-hydroxycyclopentyl]methyl sulfamate]
  IC50: < 10 nM
  inhibition at 0.111 µM: 99%

## NS(=O)(=O)OC[C@H]1C[C@@H](Nc2ncncc2C(=O)c2cc(Cl)n(Cc3cccc(Br)c3)c2)[C@@H](F)[C@@H]1O [Compound I-244, {(1R,2R,3R,4R)-4-[(5-{[1-(3-Bromobenzyl)-5-chloro-1H-pyrrol-3-yl]carbonyl}pyrimidin-4-yl)amino]-3-fluoro-2-hydroxycyclopentyl}methyl sulfamate]
  IC50: < 10 nM
  inhibition at 0.111 µM: 98%

## NS(=O)(=O)OC[C@H]1C[C@@H](Nc2ncncc2C(=O)c2ccn(Cc3ccc(F)c(I)c3)n2)C[C@@H]1O [Compound I-245, {(1R,2S,4R)-4-[(5-{[1-(4-fluoro-3-iodobenzyl)-1H-pyrazol-3-yl]carbonyl}pyrimidin-4-yl)amino]-2-hydroxycyclopentyl}methyl sulfamate]
  IC50: < 10 nM
  inhibition at 0.111 µM: 100%

## NS(=O)(=O)OC[C@H]1C[C@@H](Nc2ccncc2C(=O)c2ccn(Cc3cccc(OC(F)F)c3)n2)C[C@@H]1O [Compound I-246, [(1R,2S,4R)-4-{[3-({1-[3-(difluoromethoxy)benzyl]-1H-pyrazol-3-yl}carbonyl)pyridin-4-yl]amino}-2-hydroxycyclopentyl]methyl sulfamate]
  IC50: < 10 nM
  inhibition at 0.111 µM: 97%

## NS(=O)(=O)OC[C@H]1C[C@@H](Nc2ncncc2C(=O)c2ccn(Cc3cccnc3)n2)[C@H](O)[C@@H]1O [Compound I-247, {(1R,2R,3S,4R)-2,3-dihydroxy-4-[(5-{[1-(pyridin-3-ylmethyl)-1H-pyrazol-3-yl]carbonyl}pyrimidin-4-yl)amino]cyclopentyl}methyl sulfamate]
  IC50: < 10 nM
  inhibition at 0.111 µM: 90%

## Cc1cccc(Cn2nc(C(=O)c3cncnc3N[C@@H]3C[C@H](COS(N)(=O)=O)[C@@H](O)C3)cc2C)c1 [Compound I-248, {(1R,2S,4R)-2-hydroxy-4-[(5-{[5-methyl-1-(3-methylbenzyl)-1H-pyrazol-3-yl]carbonyl}pyrimidin-4-yl)amino]cyclopentyl}methyl sulfamate]
  IC50: < 10 nM
  inhibition at 0.111 µM: 99%

## N#Cc1ccccc1Cn1ccc(C(=O)c2cncnc2N[C@@H]2C[C@H](COS(N)(=O)=O)[C@@H](O)[C@H]2O)n1 [Compound I-249, {(1R,2R,3S,4R)-4-[(5-{[1-(2-cyanobenzyl)-1H-pyrazol-3-yl]carbonyl}pyrimidin-4-yl)amino]-2,3-dihydroxycyclopentyl}methyl sulfamate]
  IC50: < 10 nM
  inhibition at 0.111 µM: 97%

## NS(=O)(=O)OC[C@H]1C[C@@H](Nc2ncncc2C(=O)c2ccn(Cc3cccc(N4CCOCC4)c3)n2)C[C@@H]1O [Compound I-251, [(1R,2S,4R)-2-hydroxy-4-{[5-({1-[3-(morpholin-4-yl)benzyl]-1H-pyrazol-3-yl}carbonyl)pyrimidin-4-yl]amino}cyclopentyl]methyl sulfamate]
  IC50: 10 to 100 nM
  inhibition at 0.111 µM: 71%

## NS(=O)(=O)OC[C@H]1C[C@@H](Nc2ncncc2C(=O)c2ccn(CC3=CCCCC3)n2)C[C@@H]1O [Compound I-252, {(1R,2S,4R)-4-[(5-{[1-(cyclohex-1-en-1-ylmethyl)-1H-pyrazol-3-yl]carbonyl}pyrimidin-4-yl)amino]-2-hydroxycyclopentyl}methyl sulfamate]
  IC50: < 10 nM
  inhibition at 0.111 µM: 97%

## N#Cc1ccccc1Cn1ccc(C(=O)c2cncnc2N[C@@H]2C[C@H](COS(N)(=O)=O)[C@@H](O)C2)n1 [Compound I-253, {(1R,2S,4R)-4-[(5-{[1-(2-cyanobenzyl)-1H-pyrazol-3-yl]carbonyl)pyrimidin-4-yl)amino]-2-hydroxycyclopentyl}methyl sulfamate]
  IC50: 10 to 100 nM
  inhibition at 0.111 µM: 91%

## NS(=O)(=O)OC[C@H]1C[C@@H](Nc2ncncc2C(=O)c2cc(Cl)n(Cc3ccc(Cl)o3)c2)[C@@H](F)[C@@H]1O [Compound I-254, [(1R,2R,3R,4R)-4-{[5-({5-chloro-1-[(5-chloro-2-furyl)methyl]-1H-pyrrol-3-yl}carbonyl)pyrimidin-4-yl]amino}-3-fluoro-2-hydroxycyclopentyl]methyl sulfamate]
  IC50: < 10 nM
  inhibition at 0.111 µM: 99%

## NS(=O)(=O)OC[C@H]1C[C@@H](Nc2ncncc2C(=O)c2ccn(S(=O)(=O)c3cccc(Br)c3)c2)C[C@@H]1O [Compound I-255, [(1R,2S,4R)-4-{[5-({1-[(3-bromophenyl)sulfonyl]-1H-pyrrol-3-yl}carbonyl)pyrimidin-4-yl]amino}-2-hydroxycyclopentyl]methyl sulfamate]
  IC50: < 10 nM
  inhibition at 0.111 µM: 97%

## NS(=O)(=O)OC[C@H]1C[C@@H](Nc2ncncc2C(=O)c2ccn(Cc3cccc(OC(F)F)c3)n2)[C@H](O)[C@@H]1O [Compound I-256, [(1R,2R,3S,4R)-4-{[5-({1-[3-(difluoromethoxy)benzyl]-1H-pyrazol-3-yl}carbonyl)pyrimidin-4-yl]amino}-2,3-dihydroxycyclopentyl]methyl sulfamate]
  IC50: < 10 nM
  inhibition at 0.111 µM: 99%

## NS(=O)(=O)OC[C@H]1C[C@@H](Nc2ncncc2C(=O)c2ccn(Cc3ccc(C(F)(F)F)s3)c2)[C@@H](F)[C@@H]1O [Compound I-257, [(1R,2R,3R,4R)-3-fluoro-2-hydroxy-4-({5-[(1-{[5-(trifluoromethyl)-2-thienyl]methyl}-1H-pyrrol-3-yl)carbonyl]pyrimidin-4-yl}amino)cyclopentyl]methyl sulfamate]
  IC50: < 10 nM
  inhibition at 0.111 µM: 98%

## NS(=O)(=O)OC[C@H]1C[C@@H](Nc2ncncc2C(=O)c2ccn(Cc3cc(F)cc(C(F)(F)F)c3)n2)[C@H](O)[C@@H]1O [Compound I-258, [(1R,2R,3S,4R)-4-{[5-({1-[3-fluoro-5-(trifluoromethyl)benzyl]-1H-pyrazol-3-yl}carbonyl)pyrimidin-4-yl]amino}-2,3-dihydroxycyclopentyl]methyl sulfamate]
  IC50: < 10 nM
  inhibition at 0.111 µM: 97%

## NS(=O)(=O)OC[C@H]1C[C@@H](Nc2ncncc2C(=O)c2ccn(Cc3ccc(SC(F)(F)F)cc3)n2)[C@H](O)[C@@H]1O [Compound I-259, [(1R,2R,3S,4R)-2,3-dihydroxy-4-({5-[(1-{4-[(trifluoromethyl)sulfanyl]benzyl}-1H-pyrazol-3-yl)carbonyl]pyrimidin-4-yl}amino)cyclopentyl]methyl sulfamate]
  IC50: < 10 nM
  inhibition at 0.111 µM: 95%

## NS(=O)(=O)OC[C@H]1C[C@@H](Nc2ncncc2C(=O)c2ccn(Cc3cc(F)cc(F)c3)n2)C[C@@H]1O [Compound I-260, {(1R,2S,4R)-4-[(5-{[1-(3,5-difluorobenzyl)-1H-pyrazol-3-yl]carbonyl}pyrimidin-4-yl)amino]-2-hydroxycyclopentyl}methyl sulfamate]
  IC50: < 10 nM
  inhibition at 0.111 µM: 91%
